Measured values as given in patent US8497278B2, “Imidazo[1,2-a]pyridine compounds” (priority 2008, dated 2013).

How the values were obtained:
[1] = system: Wistar rats; experiment: Vogel conflict test; type: in vivo; details: rat, 60 min before test, 3 minute test
Experimental: Vogel Conflict Test Protocol: The Vogel conflict test is an animal model of anxiety described by Vogel et al. (1971). In this test, water deprived animals are placed in a cage with free access to a drinking bottle. Whenever the animal drinks, an electric shock is administered. Animals punished during drinking rapidly cease to drink. Anxiolytic drugs decrease the effect of punishment and increase the number of shocks accepted by the rats in this conflict situation. Male Wistar rats were used in these studies. Rats were deprived of water for approximately 48 hours and then placed individually into a transparent Plexiglas enclosure with a floor consisting of stainless steel bars spaced 1 cm apart. The back wall of the enclosure was made of opaque Plexiglas thereby concealing the observer from the experimental animal. In the center of the opposite wall, 5 cm above the floor, a metal water spout protruded into the cage and was connected to one pole of a shock generator. The other pole of the shock generator was connected to the metal grid floor. The rat is left to explore until it finds the water spout. Then, every time it drinks, it receives an electric shock (1.7 mA, 1 sec duration) 2 seconds after it starts drinking The number of punished drinks is counted during a 3 minute test. Ten rats are studied per treatment group. Clobazam (64 mg/kg) was used as the positive control. Compounds of the present invention, vehicle (45% hydroxypropyl beta-cyclodextrin) and clobazam were administered orally to all groups (n=10 […] per group) 60 minutes prior to behavioral testing. All data were analyzed using unpaired Student's t-tests. An effect was considered significance if p<0.05.

[2] = system: central benzodiazepine receptors; experiment: Central benzodiazepine receptor binding (test of Speth et al.); details: 1000 nM of the compound
How it was run: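 Values are percent inhibition of central benzodiazepine receptor binding at 1000 nM compound (initial single-point screen at 1.0E-09, 1.0E-07 and 1.0E-05 M). Speth et al. binding test; nonspecific binding defined with excess unlabelled ligand and subtracted from total.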

[3] = biological target: T1, α3 subtype containing GABA-A receptors (Homo sapiens, UniProt P18507+P34903); experiment: Two-electrode voltage clamp electrophysiology in Xenopus oocytes, potentiation of GABA EC20 response, α3; type: cell-based; details: 100 nM compound, read-out: Percentage of potentiation alpha3
T1 construct: expressed in transfected cells; host or cells: Xenopus laevis oocytes, cRNA injected
How it was run: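 TEVC, oocytes expressing human αx/β3/γ2L GABA-A; Vh −80 mV; ND96 pH 7.5 perfusion. 3 × 20-s GABA EC20 (60 μM) baseline → 1 μM CDP standard → compound 100 nM. Low-current or poorly γ2L-incorporating oocytes excluded.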

[4] = biological target: T2, α5 subtype containing GABA-A receptors (Homo sapiens, UniProt P18507+P31644); experiment: Two-electrode voltage clamp electrophysiology in Xenopus oocytes, potentiation of GABA EC20 response, α5; type: cell-based; details: 100 nM compound, read-out: Percentage of potentiation alpha5
T2 construct: expressed in transfected cells; host or cells: Xenopus laevis oocytes, cRNA injected
Experimental: Electrophysiology protocol: Oocytes were prepared from adult female Xenopus laevis frogs. cRNA encoding human α1, α2, α3, α5, β3 and γ2L GABAA receptor subunits was injected into the cytoplasm of stage 5 or 6 oocytes using the Robocyte Robot (Multi Channel Systems, Reutlingen, Germany). Two-electrode voltage clamp recordings were made in 96-well plates using the Robocyte Robot. Oocytes were impaled using recording heads with two glass electrodes containing 1.5 M potassium acetate and 0.5 M KCl and held at a membrane potential of −80 mV. Oocytes were continually perfused with a ND96 solution (96 mM NaCl, 2 mM KCl, 0.1 mM CaCl2, and 5 mM HEPES, pH 7.5) using a Gilson 222 XL Liquid Handler and Gilson Minipuls 3 Peristaltic Pump (Gilson Medical Electronics, Middleton, Wis., USA). The protocol consisted of three 20-s applications of GABA that gave a 20% of the maximum response (EC20: 60 μM) to allow for headroom to determine a baseline GABA response. To assess the potentiation, oocytes were first exposed to a single 1 μM chlordiazepoxide (CDP) as a potentiation standard. Oocytes with insufficient expression levels (currents below threshold) or insufficient γ2L subunit incorporation (judged by rapid desensitization upon GABA application, or by insufficient potentiation by CDP) were not included in analysis. Following this control application, a given oocyte was exposed to test compounds at 100 nM concentrations. Only one concentration of one compound was tested per oocyte. […] One skilled in the art will recognize that subtypes contribute to the effects of GABA-A modulators. Such that compounds favoring different subtypes can have different therapeutic effects. The magnitude of modulation, for example, partial modulators can influence the effects in vivo. “++” indicates a greater modulation that “+” so that at any given subtype “++” inducates a greater amount of modulation for that subtype. In some embodiments, modulation favoring alpha 1 relative to alpha2 and/or alpha 3 can have sedative hypnotic effects. In other embodiments, compounds with reduced selectivity of alpha 1 can express anxiolytic effects with less sedation. Compounds with selectivity for alpha 5 can have memory/cognition enhancing effects.

T2 sequence (P31644 32-462): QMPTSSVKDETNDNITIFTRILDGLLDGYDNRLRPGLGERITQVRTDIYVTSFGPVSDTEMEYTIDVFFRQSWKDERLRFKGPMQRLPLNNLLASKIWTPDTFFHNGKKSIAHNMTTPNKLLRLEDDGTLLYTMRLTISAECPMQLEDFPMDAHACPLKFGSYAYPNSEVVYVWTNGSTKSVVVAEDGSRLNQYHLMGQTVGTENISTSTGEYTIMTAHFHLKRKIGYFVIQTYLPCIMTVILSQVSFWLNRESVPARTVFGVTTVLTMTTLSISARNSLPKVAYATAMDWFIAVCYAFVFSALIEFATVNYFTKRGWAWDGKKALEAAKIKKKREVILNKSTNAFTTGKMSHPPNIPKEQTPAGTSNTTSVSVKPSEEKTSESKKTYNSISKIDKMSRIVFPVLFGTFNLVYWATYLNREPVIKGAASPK
T2 sequence (P28472 26-473 partner): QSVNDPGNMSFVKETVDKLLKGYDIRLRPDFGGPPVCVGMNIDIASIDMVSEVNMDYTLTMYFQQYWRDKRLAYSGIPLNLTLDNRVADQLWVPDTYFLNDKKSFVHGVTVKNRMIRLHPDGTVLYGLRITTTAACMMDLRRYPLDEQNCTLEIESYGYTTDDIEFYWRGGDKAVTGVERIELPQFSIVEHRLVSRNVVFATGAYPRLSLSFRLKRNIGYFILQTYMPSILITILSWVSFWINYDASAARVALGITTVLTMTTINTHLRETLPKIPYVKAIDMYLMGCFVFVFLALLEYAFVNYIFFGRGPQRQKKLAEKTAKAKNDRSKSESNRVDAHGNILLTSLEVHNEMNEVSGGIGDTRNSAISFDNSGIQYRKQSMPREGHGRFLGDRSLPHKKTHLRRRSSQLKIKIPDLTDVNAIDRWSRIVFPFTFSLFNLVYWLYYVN
T2 sequence (P18507 40-475): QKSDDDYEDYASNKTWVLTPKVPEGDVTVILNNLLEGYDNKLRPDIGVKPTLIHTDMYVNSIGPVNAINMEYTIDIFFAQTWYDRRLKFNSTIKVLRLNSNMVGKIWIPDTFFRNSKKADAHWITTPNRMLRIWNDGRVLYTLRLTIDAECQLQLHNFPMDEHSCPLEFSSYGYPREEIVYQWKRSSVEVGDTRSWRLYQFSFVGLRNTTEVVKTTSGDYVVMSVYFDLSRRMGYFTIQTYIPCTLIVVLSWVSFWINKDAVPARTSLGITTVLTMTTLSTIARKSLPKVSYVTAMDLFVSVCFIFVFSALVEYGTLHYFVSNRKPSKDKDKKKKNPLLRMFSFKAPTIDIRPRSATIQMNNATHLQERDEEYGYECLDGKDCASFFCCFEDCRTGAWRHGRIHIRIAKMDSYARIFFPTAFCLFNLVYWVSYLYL
T1 sequence (P34903 29-492): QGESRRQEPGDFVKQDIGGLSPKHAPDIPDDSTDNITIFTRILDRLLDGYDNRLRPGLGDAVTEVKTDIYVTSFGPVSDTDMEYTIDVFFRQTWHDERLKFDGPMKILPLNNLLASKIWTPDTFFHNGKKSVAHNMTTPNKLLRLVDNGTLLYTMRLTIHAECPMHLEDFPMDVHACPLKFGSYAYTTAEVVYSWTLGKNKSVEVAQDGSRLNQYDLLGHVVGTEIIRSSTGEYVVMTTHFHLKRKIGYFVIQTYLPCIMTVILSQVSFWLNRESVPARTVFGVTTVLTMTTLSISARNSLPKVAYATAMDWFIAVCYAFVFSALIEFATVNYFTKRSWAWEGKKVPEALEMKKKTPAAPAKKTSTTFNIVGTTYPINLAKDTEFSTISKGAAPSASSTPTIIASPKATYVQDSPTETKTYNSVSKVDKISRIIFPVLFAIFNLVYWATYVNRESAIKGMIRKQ
T1 sequence (P28472 26-473 partner): as the sequence (P28472 26-473 partner) above
T1 sequence (P18507 40-475): as the sequence (P18507 40-475) above

| Compound | Number of Shocks Mean ± S.E.M. ([1]; 3 mg/kg PO) | Number of Shocks Mean ± S.E.M. ([1]; 10 mg/kg PO) | Number of Shocks Mean ± S.E.M. ([1]; 30 mg/kg PO) | % Inhibition at 1000 nM for CBZD [2] | activation at 0.1 µM [3] | activation at 0.1 µM [4] |
| --- | --- | --- | --- | --- | --- | --- |
| Clc1ccc(-c2nc3ccccn3c2Cc2ncn[nH]2)cc1 [Compound 211, 3-((1H-1,2,4-triazol-5-yl)methyl)-2-(4-chlorophenyl)imidazo[1,2-a]pyridine] | 3.9 ± 0.5 | 5.3 ± 0.8 | 5.0 ± 1.1 |  |  |  |
| Clc1ccc(-c2nc3cccnn3c2Cn2cncn2)cc1 [Compound 32, 3-((1H-1,2,4-triazol-1-yl)methyl)-2-(4-chlorophenyl)imidazo[1,2-b]pyridazine] | 3.8 ± 0.6 | 3.8 ± 0.7 | 6.6 ± 2.3 | ++ (percentage of inhibition of central BZD site binding is greater than 80% in the presence of 1000 nM of the compound) |  |  |
| Cn1ncnc1Cc1c(-c2ccc(F)cc2)nc2ccc(F)cn12 [Compound 200, 6-fluoro-2-(4-fluorophenyl)-3-((1-methyl-1H-1,2,4-triazol-5-yl)methyl)imidazo[1,2-a]pyridine] | 8.4 ± 2.1 | 8.9 ± 2.3 | 9.5 ± 2.1 | ++ (percentage of inhibition of central BZD site binding is greater than 80% in the presence of 1000 nM of the compound) |  |  |
| Cc1ccn(Cc2c(-c3ccc(Cl)cc3)nc3ccccn23)c(=O)n1 [Compound 105, 1-((2-(4-chlorophenyl)imidazo[1,2-a]pyridin-3-yl)methyl)-4-methylpyrimidin-2(1H)-one] | 5.1 ± 0.6 | 5.8 ± 0.8 | 8.2 ± 1.8 |  |  |  |
| NC(=O)c1ncn(Cc2c(-c3ccc(Cl)cc3)nc3ccccn23)n1 [Compound 72, 1-((2-(4-chlorophenyl)imidazo[1,2-a]pyridin-3-yl)methyl)-1H-1,2,4-triazole-3-carboxamide] |  |  |  | ++ (percentage of inhibition of central BZD site binding is greater than 80% in the presence of 1000 nM of the compound) | 10 to 50% | -10 to 10% |
| CNC(=O)c1nccn1Cc1c(-c2ccc(Cl)cc2)nc2ccccn12 [Compound 77, 1-((2-(4-chlorophenyl)H-imidazo[1,2-a]pyridin-3-yl)methyl)-N-methyl-1H-imidazole-2-carboxamide] |  |  |  | ++ (percentage of inhibition of central BZD site binding is greater than 80% in the presence of 1000 nM of the compound) |  |  |
